Patent publication US20260306460A1, “COMPOSITION FOR REMOVING AND INHIBITING SENESCENT CELLS, AND USES THEREOF” (LIFECEUTIX CO., LTD., priority 2023, published 2026)
Where two headings read alike, the source gives them in different places.

Key:
Assay type in all cases: in vivo, mouse
[1] = system: bleomycin-induced scleroderma C57BL6J mice; assay: Bleomycin scleroderma in mice (p16, COL1A1 mRNA, dermal thickness), Example 24-2, Table 48; conditions: daily for 21 days; for p16 mRNA: untreated 100 (±8.8); for Col1a1 mRNA: untreated 100 (±13.2); for Dermal Thickness: untreated 459 (±38.7)
Method: Eight-week-old male C57BL6J mice (KRIBB Laboratory Animal Resource Center) were acclimated to the experimental environment for one week. Then, 100 μl of the anticancer drug bleomyxin (1 mg/ml) was administered subcutaneously every other day to induce scleroderma for more than three weeks. Mice with scleroderma were randomly assigned to experimental and control groups. LX-403 was mixed with a 10% ethanol solution of PEG400 and administered orally at a concentration of 25 mg/kg daily for 21 days or administered directly to the skin at a concentration of 1 μM. LX-1801 was mixed with a solution of 4% DMSO, 30% PEG300, and 5% Tween80 in distilled water and administered subcutaneously at a concentration of 0.4 μM daily for 21 days. LX-2001 was mixed in PBS and administered intradermally at a concentration of 2 μM daily for 21 days. LX-2002 was mixed in distilled water with 4% DMSO, 30% PEG300, and 5% Tween80 and administered intradermally at a concentration of 2 μM daily for 21 days. […] LX-2005 was mixed in distilled water with 4% DMSO, 30% PEG300, and 5% Tween80 and administered intradermally at a concentration of 90 μM daily for 21 days. LX-2007 was mixed in distilled water with 4% DMSO, 30% PEG300, and 5% Tween80 and administered intradermally at a concentration of 90 μM daily for 21 days. […] LX-3002 was mixed with distilled water with 4% DMSO, 30% PEG300, 5% tween80 and administered orally at 10 mg/kg daily for 21 days. […] LX-5411 was mixed with 5% PBS and administered orally at 10 mg/kg daily for 21 days or subcutaneously at 3 μM. LX-5701 was mixed with PBS and administered orally at 360 mg/kg daily for 21 days. LX-6807 was mixed in saline and administered intraperitoneally at a concentration of 1 mg/kg daily for 21 days. The control group was administered only the solution in the same volume. After the end of drug administration, mice were sacrificed in the same manner as in Example 7-2 of WO2023-085787 A1, RNA was extracted from skin tissue, and the synthesized cDNA was used to perform and analyze the mRNA amounts of p16 and collagen (COL1A1) by qRT-PCR (quantitative real-time PCR). In addition, to measure the degree of bleomycin-induced skin hardening, skin frozen sections were stained with H/E (Hematoxylin/Eosin), and the thickness of the dermis was observed under an optical microscope.

[2] = system: doxorubicin-induced aged C57BL6J mice; assay: Hair loss area in doxorubicin-aged mice, Example 22-11, Table 40
Method: Eight-week-old male C57BL6J mice (KRIBB Laboratory Animal Resource Center) were acclimated to the experimental environment for one week. Afterwards, the anticancer agent doxorubicin was administered intraperitoneally at a concentration of 10 mg/kg, inducing aging for more than 10 days. The aging-induced mice were randomly assigned to experimental and control groups. LX-403 was mixed with a 10% ethanol solution of PEG400 and administered orally at a concentration of 25 mg/kg or intradermally at a concentration of 1 μM for 21 days. LX-1801 was mixed in distilled water with 4% DMSO, 30% PEG300, and 5% Tween80 and administered intradermally at a concentration of 0.4 μM daily for 21 days. LX-2001 was mixed in PBS and administered intradermally at a concentration of 2 μM daily for 21 days. LX-2002 was mixed in distilled water with 4% DMSO, 30% PEG300, and 5% Tween80 and administered intradermally at a concentration of 2 μM daily for 21 days. […] LX-2005 was mixed in distilled water with 4% DMSO, 30% PEG300, and 5% Tween80 and administered intradermally at a concentration of 90 μM daily for 21 days. LX-2007 was mixed in distilled water with 4% DMSO, 30% PEG300, and 5% Tween80 and administered intradermally at a concentration of 90 μM daily for 21 days. […] LX-3002 was mixed in distilled water with 4% DMSO, 30% PEG300, and 5% Tween80 and administered orally at a concentration of 10 mg/kg daily for 21 days. […] LX-5411 was mixed in 5% phosphate-buffered saline (PBS) and administered orally at a concentration of 10 mg/kg daily for 21 days or intradermally at a concentration of 3 μM. LX-5701 was mixed in PBS and administered orally at a concentration of 360 mg/kg daily for 21 days. LX-6807 was mixed in saline and administered intraperitoneally at a concentration of 1 mg/kg daily for 21 days. The control group received only the solution in the same volume. After the end of drug administration, the methods described in each example below were performed.
Alopecia is one of the most troubling side effects of chemotherapy, for which there is currently no treatment. Hair loss in mice induced to age by the anticancer drug was quantified using imaging software such as ImageJ (NIH) from digital photographs taken using a fixed camera position and magnification.

[3] = system: naturally aged C57BL6J mice; assay: Geriatric depression and anxiety in aged mice, Example 21-8; conditions: for amount of SASP, p16, SA-β-gal, lipofuscin / symptoms of geriatric depression and anxiety: aged mice; for amount of SASP in serum and tissues: mice of Examples 21-5 and 21-6
Text: The amount of senescent-associated secretory factor (SASP) in serum and tissues collected from mice of Examples 21-5 and 21-6 was reduced by treatment with LX-5701, LX-2101, or LX-2102. It was confirmed that removing senescent cells, which increase with aging in mice, and effectively reducing the amount of senescent-associated secretory factor (SASP) can improve symptoms of geriatric depression and anxiety.

[4] = doxorubicin-induced aged mice, untreated 100 (±15.4)

Compound	p16 mRNA [1]	Col1a1 mRNA [1]	Dermal Thickness [1]	Relative area of hair loss [2, 4]	amount of SASP, p16, SA-β-gal, lipofuscin [3]	symptoms of geriatric depression and anxiety [3]	Relative area of hair loss [2]	amount of SASP in serum and tissues [3]
O=C(C(C[N+](=O)[O-])=NO)N1CCN(C(c2ccc(Cl)cc2)c2ccc(Cl)cc2)CC1 [LX-403]	34.7 (±4.1) %	45.7 (±4.5) %	356 (±36.3) μm	76 (±5.5) %	–	–	–	–
COC(=O)c1ccc([C@H]2c3[nH]c4ccccc4c3C[C@H](C(=O)OC)N2C(=O)CCl)cc1 [LX-405]	–	–	–	–	reduced	improved	–	–
C[C@@H]1CC[C@@]23C[C@H](O)C(=O)[C@@]2(O)[C@]1(C)[C@H](OC(=O)CCl)C[C@@H](C1=CCn2c(=O)n(-c4ccccc4)c(=O)n2C1)[C@@H]3C [LX-1801, (2S,3aS,4S,5R,7R,8S,8aS,11R)-7-(1,3-Dioxo-2-phenyl-2,3,5,8-tetrahydro-1H-[1,2,4]triazolo[1,2-a]pyridazin-6-yl)-2,3a-dihydroxy-4,8,11-trimethyl-3-oxooctahydro-1H-4,8a-propanoazulen-5-yl 2-Chloroacetate]	35.4 (±5.6) %	47.8 (±4.7) %	418 (±42.3) μm	78 (±5.4) %	–	–	–	–
C[C@H]1[C@H](C)CC[C@]2(C(=O)O)CC[C@]3(C)C(=CC[C@@H]4[C@@]5(C)CC[C@H](O)C(C)(C)[C@@H]5CC[C@]43C)[C@H]12 [LX-2001, Ursolic acid]	64.2 (±4.4) %	62.8 (±5.6) %	394 (±78.4) μm	80 (±6.9) %	–	–	–	–
C[C@H]1[C@H](C)CC[C@]2(C(=O)O)CC[C@]3(C)C(=CC[C@@H]4[C@@]5(C)C[C@@H](O)[C@H](O)C(C)(C)[C@@H]5CC[C@]43C)[C@H]12 [LX-2002, Corosolic acid]	51.3 (±2.6) %	71.2 (±4.2) %	427 (±60.1) μm	83 (±10.4) %	–	–	–	–
CC1(C)CC[C@]2(C(=O)O)CC[C@]3(C)C(=CC[C@@H]4[C@@]5(C)CC[C@H](O)C(C)(C)[C@@H]5CC[C@]43C)[C@@H]2C1 [LX-2003, Oleanolic acid]	72.4 (±5.8) %	73.8 (±3.5) %	411 (±81.3) μm	79 (±6.7) %	–	–	–	–
C=C(C)[C@@H]1CC[C@]2(C(=O)O)CC[C@]3(C)[C@H](CC[C@@H]4[C@@]5(C)CC[C@H](O)C(C)(C)[C@@H]5CC[C@]43C)[C@@H]12 [LX-2005, Betulinic acid]	62.8 (±4.6) %	68.2 (±2.4) %	432 (±61.7) μm	82 (±4.6) %	–	–	–	–
CC1(C)C=C2[C@H]3CC[C@@H]4[C@@]5(C)CCC(=O)C(C)(C)[C@@H]5CC[C@@]4(C)[C@]3(C)CC[C@@]2(C(=O)O)CC1 [LX-2007, Moronic acid]	75.1 (±3.5) %	80.5 (±4.0) %	421 (±83.6) μm	86 (±2.9) %	–	–	–	–
CC1(C)CC[C@]2(NC(=O)C(C)(F)F)CC[C@]3(C)[C@H](C(=O)C=C4[C@@]5(C)C=C(C#N)C(=O)C(C)(C)[C@@H]5CC[C@]43C)[C@@H]2C1 [LX-2101, Omaveloxolone]	–	–	–	–	reduced	improved	79 (±3.9) %	reduced
COC(=O)[C@]12CCC(C)(C)C[C@H]1[C@H]1C(=O)C=C3[C@@]4(C)C=C(C#N)C(=O)C(C)(C)[C@@H]4CC[C@@]3(C)[C@]1(C)CC2 [LX-2102, Bardoxolone methyl]	–	–	–	–	–	–	–	reduced
CCCC\C=C/C=C/C=C\CCCCCCCC(=O)O [LX-2707, Punicic acid]	67.5 (±4.7) %	64.1 (±2.0) %	389 (±23.6) μm	–	reduced	improved	–	–
COC(=O)[C@H]1Cc2c([nH]c3ccccc23)[C@H](c2ccc(S(C)(=O)=O)cc2)N1C(=O)CCl [LX-5401, methyl (1S,3R)-2-(2-chloroacetyl)-1-(4-(methylsulfonyl)phenyl)-2,3,4,9-tetrahydro-1H-pyrido[3,4-b]indole-3-carboxylate]	61.2 (±6.7) %	74.6 (±2.4) %	401 (±46.3) μm	–	reduced	improved	–	–
C#CC(=O)N1[C@@H](CCCC)Cc2cc(OC)ccc2[C@@H]1c1ccc(NC23CC4CC(CC(C4)C2)C3)cc1 [LX-5411]	43.8 (±3.0) %	55.3 (±1.6) %	376 (±47.1) μm	77 (±4.1) %	reduced	improved	–	–
O=C1C2CCN(CC2)C1CNC(=O)C(F)(F)F (stereo not drawn) [LX-5701]	64 (±9.4) %	59.7 (±17.3) %	358 (±21.4) μm	67 (±17.8) %	reduced	improved	–	reduced
Cc1cccc([C@H](C)c2cnc[nH]2)c1C [LX-6807, Dexmedetomidine]	64.7 (±3.5) %	37.6 (±2.5) %	315 (±29.8) μm	59 (±3.2) %	reduced	improved	–	–
Tocofersolan [LX-3001]	76.1 (±5.5) %	81.4 (±2.5) %	421 (±28.4) μm	–	reduced	improved	–	–
